Where a name gives a salt, the structure may show the parent alone. Read-outs that look alike come from different tables or passages of the source. Non-standard residues stand in square brackets, D forms with d. Residues, ends and D or L forms follow the SMILES beside them. GABA = NCCCC(=O)O
Tests used:
[1] = tested on: Trichomonas vaginalis G3 trophozoites; assay: microbe, parasite or virus in culture; settings: 48 h
[2] = tested on: Trichomonas vaginalis G3 trophozoites
[3] = tested on: nontumorigenic neonatal foreskin fibroblast (NFF) cell line
[4] = read-out: T.vaginalis_%inb_Rep1
[5] = read-out: T.vaginalis_%inb_Rep2
[6] = HTS, parasite screen at 1 µg/mL, replicate 1
[7] = HTS, parasite screen at 1 µg/mL, replicate 2
[8] = NFF fibroblast screen at 5 µg/mL, A = active, I = inactive
[9] = HTS, parasite screen at 1 µg/mL, replicate 1, raw absorbance
[10] = HTS, parasite screen at 1 µg/mL, replicate 2, raw absorbance
[11] = HTS replicate 1, parasite screen 1 µg/mL
[12] = HTS replicate 2, parasite screen 1 µg/mL
[13] = NFF fibroblasts, single concentration 5 µg/mL

Row | Molecule | T.vaginalis_%inb_Rep1 [2, 6] [%] | T.vaginalis_%inb_Rep2 [2, 7] [%] | NFF_Activity [3, 8] | also measured
1 | CN(C)[C@H]1C(O)=C(C(N)=O)C(=O)[C@@]2(O)C(O)=C3C(=O)c4c(O)cccc4[C@@](C)(O)[C@H]3C[C@@H]12 [Epitetracycline hydrochloride] | – | – | – | inhibition of growth at 1 µg/mL [1, 4]: 11%; inhibition of growth at 1 µg/mL [1, 5]: 4.41%
2 | CN(C)c1ccc(O)c2c1C[C@H]1C[C@H]3[C@H](N(C)C)C(O)=C(C(N)=O)C(=O)[C@@]3(O)C(O)=C1C2=O [Minocycline HCl] | – | – | – | inhibition of growth at 1 µg/mL [1, 4]: 4.51%; inhibition of growth at 1 µg/mL [1, 5]: 0.77%
3 | CC[C@@]1([C@@H]2O[C@@H]([C@H]3O[C@@](O)(CO)[C@H](C)C[C@@H]3C)C[C@@H]2C)CC[C@H]([C@]2(C)CC[C@]3(C[C@H](O)[C@@H](C)[C@@H]([C@@H](C)[C@@H](OC)[C@H](C)C(=O)O)O3)O2)O1 [Monensin A] | – | – | – | inhibition of growth at 1 µg/mL [1, 4]: 12.4%; inhibition of growth at 1 µg/mL [1, 5]: 16.1%
4 | COc1c(C)c2c(c(O)c1C/C=C(\C)CCC(=O)O)C(=O)OC2 [Mycophenolic acid] | – | – | – | inhibition of growth at 1 µg/mL [1, 4]: 12.2%; inhibition of growth at 1 µg/mL [1, 5]: 14.1%
5 | CC[C@@H](C(=O)O)[C@@H]1O[C@@H]([C@@H](C)[C@H](O)[C@H](C)C(=O)[C@H](CC)[C@H]2O[C@]3(C=C[C@@H](O)[C@]4(CC[C@@](C)([C@H]5CC[C@](O)(CC)[C@H](C)O5)O4)O3)[C@H](C)C[C@@H]2C)[C@@H](C)C[C@@H]1C [Narasin] | – | – | – | inhibition of growth at 1 µg/mL [1, 4]: 6.14%; inhibition of growth at 1 µg/mL [1, 5]: 4.3%
6 | CO[C@@H]1C[C@@H](C[C@H]2CC[C@H](C)[C@H]([C@@H](C)C(=O)O)O2)O[C@]2(O[C@](C)([C@H]3CC[C@@](C)([C@@H]4O[C@@H]([C@H]5O[C@@](O)(CO)[C@H](C)C[C@@H]5C)C[C@@H]4C)O3)C[C@H]2C)[C@@H]1C [Nigericin] | – | – | – | inhibition of growth at 1 µg/mL [1, 4]: 6.59%; inhibition of growth at 1 µg/mL [1, 5]: 6.22%
7 | COC(=O)[C@@H]1c2cc3c(c(O)c2[C@@H](O[C@@H]2O[C@@H](C)[C@H](OC)[C@@](C)(OC)[C@H]2OC)C[C@]1(C)O)C(=O)c1c(O)cc2c(c1C3=O)O[C@@H]1O[C@@]2(C)[C@H](O)[C@@H](N(C)C)[C@@H]1O [Nogalamycin] | – | – | – | inhibition of growth at 1 µg/mL [1, 4]: 12.8%; inhibition of growth at 1 µg/mL [1, 5]: 13.3%
8 | CO[C@@H]1[C@@H](OC(N)=O)[C@@H](O)[C@H](Oc2ccc3c(O)c(NC(=O)c4ccc(O)c(CC=C(C)C)c4)c(=O)oc3c2C)OC1(C)C [Novobiocin] | – | – | – | inhibition of growth at 1 µg/mL [1, 4]: 4.51%; inhibition of growth at 1 µg/mL [1, 5]: 4.68%
9 | CC1=CC2C(O)CCCC2C(C)(C(O)=C2C(=O)CNC2=O)C1CCC(C)C(O)/C(C)=C/CC(O)/C=C/C(C)C(O)/C=C/CC(O)/C=C/CC(O)CC1CCCN1C(=N)N (centres unmarked) [TPU-0037C] | 9.28 | 14.69 | I (otherwise these were reported as inactive (I)) | –
10 | CO[C@H]1/C=C\C=C(\C)C[C@H](C)[C@H](O)[C@H](C)/C=C(C)\C=C(\C)C(=O)O[C@@H]1[C@@H](C)[C@@H](O)[C@H](C)[C@@]1(O)C[C@@H](OC(=O)/C=C/C(=O)O)[C@H](C)[C@@H](C(C)C)O1 [TS 155-2] | 71.89 | 89.46 | I (otherwise these were reported as inactive (I)) | –
11 | CCC1OC(=O)CC(O)C(C)C(OC2OC(C)C(O)C(N(C)C)C2O)C(CCN2CC(C)CC(C)C2)CC(C)C(=O)C=CC(C)=CC1COC1OC(C)C(O)C(OC)C1OC.O=P(O)(O)O (centres unmarked) [Tilmicosin phosphate] | 8.60 | 12.37 | I (otherwise these were reported as inactive (I)) | –
12 | CC[C@H]1C[C@@H]2CC[C@@H](O2)[C@@H](C)C(=O)O[C@H](CC)C[C@H]2CC[C@H](O2)[C@H](C)C(=O)O[C@@H](C)C[C@@H]2CC[C@@H](O2)[C@@H](C)C(=O)O[C@H](CC)C[C@H]2CC[C@H](O2)[C@H](C)C(=O)O1 [Trinactin] | 11.27 | 13.47 | I (otherwise these were reported as inactive (I)) | –
13 | O=C(O)c1cccc2nc3ccccc3nc12 [Tubermycin B] | 8.13 | 16.27 | I (otherwise these were reported as inactive (I)) | –
14 | CN[C@@H]1C[C@H]2O[C@@](C)([C@@H]1OC)n1c3ccccc3c3c4c(c5c6ccccc6n2c5c31)C(=O)N[C@H]4O [UCN-01] | 11.33 | 13.65 | A (active (A) compounds having >25% inhibitory activity) | –
15 | CN[C@@H]1C[C@H]2O[C@@](C)([C@@H]1OC)n1c3ccccc3c3c4c(c5c6ccccc6n2c5c31)C(=O)N[C@H]4O [UCN-02] | 9.65 | 20.96 | A (active (A) compounds having >25% inhibitory activity) | –
16 | COC(=O)c1cccc2oc(-c3cccc4oc(-c5ccccc5O)nc34)nc12 [UK-1] | 10.64 | 15.36 | I (otherwise these were reported as inactive (I)) | –
17 | CCOCCO[C@@H]1CC[C@@H](C[C@@H](C)[C@@H]2CC(=O)[C@H](C)/C=C(\C)[C@@H](O)[C@@H](OC)C(=O)[C@H](C)C[C@H](C)/C=C/C=C/C=C(\C)[C@@H](OC)C[C@@H]3CC[C@@H](C)[C@@](O)(O3)C(=O)C(=O)N3CCCC[C@H]3C(=O)O2)C[C@H]1OC [Umirolimus] | 9.81 | 13.47 | I (otherwise these were reported as inactive (I)) | –

Row | Molecule | T.vaginalis_%inb_Rep1 [2, 6] [%] | T.vaginalis_%inb_Rep2 [2, 7] [%] | NFF_Activity [3, 8] | also measured
18 | CC(C)[C@H]1NC(=O)[C@H](Cc2ccccc2)NC(=O)[C@@H](C(C)C)NC(=O)[C@@H](C)NC(=O)CCCNC(=O)[C@@H](Cc2c[nH]c3ccccc23)NC(=O)[C@@H](C)NC1=O [Unguisin A] (cyclo(F[dV][dA][dW][GABA][dA][dV])) | 9.07 | 14.50 | I (otherwise these were reported as inactive (I)) | –
19 | OCC1=CC(NC2CC(CO)C(OC3OC(CO)C(O)C(O)C3O)C(O)C2O)C(O)C(O)C1O (centres unmarked) [Validamycin A] | 14.26 | 19.07 | I (otherwise these were reported as inactive (I)) | –
20 | CCC(=O)[C@@H](C)[C@@H](O)[C@H](C)C[C@@H](C)[C@H]1OC(=O)C[C@@]2(O)CC=C(C)[C@H](O2)/C(C)=C/CCC[C@@H](O[C@H]2C[C@@H](OC(N)=O)[C@H](O)[C@@H](C)O2)/C=C/[C@H](C)C[C@H]1C [Venturicidin A] | 9.49 | 12.92 | I (otherwise these were reported as inactive (I)) | –
21 | CCC(=O)[C@@H](C)[C@@H](O)[C@H](C)C[C@@H](C)[C@H]1OC(=O)C[C@@]2(O)CC=C(C)[C@H](O2)/C(C)=C/CCC[C@@H](O[C@H]2C[C@@H](O)[C@H](O)[C@@H](C)O2)/C=C/[C@H](C)C[C@H]1C [Venturicidin B] | 9.81 | 16.33 | I (otherwise these were reported as inactive (I)) | –
22 | CC1CCCC(O)CCCCCc2cc(O)cc(O)c2C(=O)O1 (stereo not drawn) [Zearalanol, alpha-] | 6.97 | 13.04 | I (otherwise these were reported as inactive (I)) | –
23 | CC1CCCC(O)CCCCCc2cc(O)cc(O)c2C(=O)O1 (stereo not drawn) [Zearalanol, beta-] | 9.65 | 13.83 | I (otherwise these were reported as inactive (I)) | –
24 | C[C@@H]1CCC[C@@H](O)CCC/C=C/c2cc(O)cc(O)c2C(=O)O1 [Zearalenol, alpha-] | 11.90 | 12.68 | I (otherwise these were reported as inactive (I)) | –
25 | C[C@@H]1CCC[C@H](O)CCC/C=C/c2cc(O)cc(O)c2C(=O)O1 [Zearalenol, beta-] | 9.54 | 15.05 | I (otherwise these were reported as inactive (I)) | –
26 | Diacetoxyscirpenol | – | – | – | T.vaginalis_%inb_Rep1 [2]: 8.29%; T.vaginalis_%inb_Rep2 [2]: 9.08%; T.vaginalis_Absorbance_Rep1 [2]: 0.923; T.vaginalis_Absorbance_Rep2 [2]: 0.786; NFF_Activity [3]: I (key: active (A) compounds having >25% inhibitory activity; otherwise these were reported as inactive (I))
27 | Dihydrocyclosporin A | 11.52 | 13.52 | – | T.vaginalis_Absorbance_Rep1 [2, 9]: 0.923; T.vaginalis_Absorbance_Rep2 [2, 10]: 0.807; NFF_Activity ([3]; NFF_NS1 screen at 5 µg/mL): I (otherwise these were reported as inactive (I))
28 | Echinocandin B | 15.24 | 6.58 | – | T.vaginalis_Absorbance_Rep1 [2, 9]: 0.992; T.vaginalis_Absorbance_Rep2 [2, 10]: 0.711; NFF_Activity ([3]; NFF_NS1 screen at 5 µg/mL): I (otherwise these were reported as inactive (I))
29 | Eprinomectin | 12.49 | 15.33 | – | T.vaginalis_Absorbance_Rep1 [2, 9]: 0.941; T.vaginalis_Absorbance_Rep2 [2, 10]: 0.832; NFF_Activity ([3]; NFF_NS1 screen at 5 µg/mL): I (otherwise these were reported as inactive (I))
30 | Fulvic acid | 12.65 | 4.34 | – | T.vaginalis_Absorbance_Rep1 [2, 9]: 0.944; T.vaginalis_Absorbance_Rep2 [2, 10]: 0.68; NFF_Activity ([3]; NFF_NS1 screen at 5 µg/mL): I (otherwise these were reported as inactive (I))
31 | Nargenicin | – | – | – | T.vaginalis_%inb_Rep1 [2, 11]: 10.70%; T.vaginalis_%inb_Rep2 [2, 12]: 13.02%; NFF_Activity [3, 13]: I (otherwise these were reported as inactive (I))
32 | Orfamide A | – | – | – | T.vaginalis_%inb_Rep1 [2, 11]: 9.99%; T.vaginalis_%inb_Rep2 [2, 12]: 10.90%; NFF_Activity [3, 13]: I (otherwise these were reported as inactive (I))
33 | Pladienolide B | – | – | – | T.vaginalis_%inb_Rep1 [2, 11]: 11.92%; T.vaginalis_%inb_Rep2 [2, 12]: 13.15%; NFF_Activity [3, 13]: I (otherwise these were reported as inactive (I))
34 | Viridicatumtoxin | 8.70 | 2.74 | I (otherwise these were reported as inactive (I)) | –

Reference: article PMC7897990, “TriTOX: A novel Trichomonas vaginalis assay platform for high-throughput screening of compound libraries” (International Journal for Parasitology: Drugs and Drug …, 2021)
